Data set [1] in a line: log D7.2-7.4 by shake-flask method. Conditions: overall value from HPLC and shake-flask determinations; read-out: experimental log D7.0–7.4. In kind it is physicochemical. As to the method:
To clarify these findings, we determined the ligand distribution coefficients for [^18/19F]IV experimentally, under physiological pH conditions in solid-liquid phase systems via retention on RP-HPLC, and in liquid-liquid phase systems by conventional shake-flask method. […] All in one, an experimental log D7.0–7.4 value of ~2.7 promised a good potential for brain uptake of [^18F]IV in vivo, attended by low unspecific binding.
Log D7.2–7.4 values of [^18F]IV were determined using a conventional shake-flask method (multiple distribution in triplicates). Measurements of distribution coefficients were performed in 3 series at 21 °C between n-octanol and three aqueous buffer solutions, physiological phosphate-saline (0.1 M Na3PO4, 0.15 M NaCl, pH 7.2), phosphate buffer (KH2PO4/Na2HPO4•2H2O, 50 mM, pH 7.2) or TRIS-HCl buffer (50 mM, pH 7.4 at 21 °C). Solutions of [^18F]IV (2–5 MBq) in MeCN, MeOH (100 μL) or in 5% ethanol/0.9% NaCl (10 μL) were added to a 15 mL polypropylene tube (n = 3 per buffer system) containing a two-layer system of a selected aqueous solution (3 mL) and n-octanol (3 mL). […] Radioactivity of these samples was quantified using a calibrated γ-counter (Wallac WIZARD, Perkin Elmer, Waltham, MA, USA). […] Distribution coefficients and log D7.2–7.4 values of [^18F]IV were calculated with Microcal^TM Origin (6.0, Microcal Software, Inc., Northhampton, MA, USA).

Data set [2] addresses T1, PDE10A (Homo sapiens, UniProt Q9Y233).
T1 construct: purchased Biocrea GmbH, Radebeul, Germany; host or cells: SF21 insect cells (PDE10A-transfected; baculovirus system is mentioned)
Briefly: Homologous competitive binding on membrane homogenates of PDE10A-transfected SF21 cells. How it is done: The dissociation constant KD of [^18F]IV was determined in homologous competitive binding experiments by nonlinear regression analysis. Cell membrane homogenates from PDE10A-transfected SF21 cells (100 µg protein/mL incubation volume) were incubated with solutions of six concentrations of IV (working concentration 10 pM–[…]), each spiked with a fixed concentration of [^18F]IV (working concentration 0.05–0.1 nM).
Crude membrane homogenates isolated from PDE10A-transfected SF21 cells were obtained from Biocrea GmbH, Radebeul, Germany. For competitive radioligand displacement experiments (n = 2), the membrane preparations were diluted with incubation buffer (50 mM Tris-HCl, pH 7.4 at room temperature, 5 mM MgCl2) and re-homogenized by passing through a 27-gauge needle. The protein (100 µg) was incubated with 0.05–0.1 nM of [^18F]IV and different concentrations of IV (10 pM–1 µM), diluted from a 10 mM stock in DMSO, at a final volume of 1 mL. Nonspecific binding was determined in the presence of 10 µM of I, and control incubation was carried out accordingly using crude membrane preparations obtained from non-transfected SF21 cells.
Incubation at room temperature was terminated after 120 min by rapid filtration (Brandel 48-channel harvester; Biomedical Research and Development Lab. Inc., Gaithersburg, MD, USA) on Whatman GF/B glass-fiber filters, pre-soaked for 90 min in 0.3% polyethylenimine (Sigma, Deisenhofen, Germany), followed by washing four times with 4 mL of ice-cold wash buffer (50 mM Tris-HCl, pH 7.4 at 4 °C). Filter-bound radioactivity was quantified using a calibrated γ-counter (Wallac WIZARD, Perkin Elmer, Waltham, MA, USA).
Each experiment was carried out in triplicate. The binding parameter IC50 was estimated using iterative non-linear curve fitting. KD of [^18F]IV was estimated directly from homologous competition curve with KD = IC50-[radioligand] as well as from the respective saturation isotherm by nonlinear regression analysis.

The test system of data set [3] is PDE10A. Briefly: Ex vivo autoradiography of mouse brain. In kind it is in vivo, CD-1 mice. As to conditions: 30 min p.i. of 100 MBq. How it is done:
To determine the regional distribution of [^18F]IV in the brain in vivo, we also performed ex vivo autoradiography. In CD-1 mice brain, heterogeneous distribution of radioactivity was noticed at 30 min after [^18F]IV injection (Figure 5), but the localization of radioligand did neither correlate with the spatial distribution of PDE10A in the brain known from immunohistochemical and in vivo PET studies nor with the pattern of [^18F]IV binding in the brain in vitro (Figure 3A). […] The discrepancy in the pattern of [^18F]IV distribution between in vitro and ex vivo autoradiography most probably indicates off-target binding of the radiotracer in combination with to low target affinity. While the dissociation rate underlying low affinity towards PDE10A allows a detection in the closed system of an in vitro study, the dynamic processes in vivo make binding of [^18F]IV towards PDE10A non-detectable. […]
Ex vivo autoradiography on the distribution of [^18F]IV in mouse brain (n = 1) was performed on sagittal brain sections obtained at 30 min after i.v. injection of 100 MBq of [^18F]IV. […] After exposition to ^18F-sensitive storage phosphor screens for 60 min, image plates were analyzed using a bioimaging analyzer system (see above).

“And” between values parts separate entries of the source, which are not always exact repeats. Equal entries are not always repeated. “Also recorded” adds a separate entry of the source.

Here are results for 1 molecule from article PMC3763632, “Radiosynthesis and Radiotracer Properties of a 7-(2-[^18F]Fluoroethoxy)-6-methoxypyrrolidinylquinazoline for Imaging of Phosphodiesterase 10A with PET” (Pharmaceuticals, 2012).

T1 sequence (Q9Y233 whole entry, species assumed): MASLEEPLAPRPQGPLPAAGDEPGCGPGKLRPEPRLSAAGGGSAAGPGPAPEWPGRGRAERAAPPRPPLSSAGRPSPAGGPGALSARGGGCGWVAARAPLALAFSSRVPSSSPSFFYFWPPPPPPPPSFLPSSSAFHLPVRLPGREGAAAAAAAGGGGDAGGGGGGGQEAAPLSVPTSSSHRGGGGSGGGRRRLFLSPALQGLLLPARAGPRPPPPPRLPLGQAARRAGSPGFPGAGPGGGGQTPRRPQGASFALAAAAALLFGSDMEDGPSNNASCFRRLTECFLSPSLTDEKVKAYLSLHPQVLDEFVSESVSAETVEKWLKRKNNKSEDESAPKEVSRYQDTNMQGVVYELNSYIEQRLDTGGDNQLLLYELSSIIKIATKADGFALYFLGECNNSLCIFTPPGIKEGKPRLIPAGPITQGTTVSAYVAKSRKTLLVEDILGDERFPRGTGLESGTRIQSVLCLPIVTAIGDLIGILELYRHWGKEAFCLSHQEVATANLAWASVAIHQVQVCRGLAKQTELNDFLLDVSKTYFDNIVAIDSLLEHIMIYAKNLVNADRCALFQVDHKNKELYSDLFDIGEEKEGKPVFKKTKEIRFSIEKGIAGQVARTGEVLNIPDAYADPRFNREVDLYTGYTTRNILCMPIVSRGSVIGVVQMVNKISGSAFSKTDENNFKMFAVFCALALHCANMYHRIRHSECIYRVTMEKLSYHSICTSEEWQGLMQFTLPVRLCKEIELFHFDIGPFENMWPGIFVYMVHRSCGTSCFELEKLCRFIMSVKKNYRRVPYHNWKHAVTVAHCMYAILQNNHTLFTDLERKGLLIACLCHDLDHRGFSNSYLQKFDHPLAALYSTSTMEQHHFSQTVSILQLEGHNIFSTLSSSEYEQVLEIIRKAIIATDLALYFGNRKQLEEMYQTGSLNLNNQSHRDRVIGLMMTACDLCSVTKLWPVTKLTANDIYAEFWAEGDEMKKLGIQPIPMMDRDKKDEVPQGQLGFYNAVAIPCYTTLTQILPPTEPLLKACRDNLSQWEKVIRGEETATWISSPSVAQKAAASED

What is called Kd is the equilibrium constant for the complex coming apart. Consider `COc1cc2c(N3CC[C@@H](Oc4cnc5ccccc5n4)C3)ncnc2cc1OCC[18F]` [[^18F]IV, (R)-7-(2-[^18F]Fluoroethoxy)-6-methoxy-4-(3-(quinoxalin-2-yloxy)pyrrolidin-1-yl)quinazoline], for which, in data set [1], the logD was roughly 2.7. The Kd in data set [2] (mean, n = 2, calculated from homologous competition) is 14 nM and ~14 nM; in data set [2] (single experiments (n = 2)), 15.9 nM and 11.6 nM. The “accumulation in PDE10A-expressing brain regions (caudate putamen, olfactory tubercle, cerebellum)” value in data set [3] is recorded as “no target specific accumulation; also recorded: free of significant accumulation”.
